Data as given in US20260317319A1, “NOVEL ERGOLINES AND METHODS OF TREATING MOOD DISORDERS” (Gilgamesh Pharma Inc., priority 2023, published 2026).
Where “and” joins values, the source holds several entries; their conditions need not be identical. Identical values can stand only once. Like-named read-outs stand apart in the source and are kept apart here.

Assays:
[1] = in vitro; format: in vitro ADME, mouse; conditions: mouse, microsomes, MLM (male CD-1) 0.50 mg/mL, NADPH 1 mM, 1 μM compound, pH 7.4, 37° C., 60 min; for microsomal CLint: read-out: Intrinsic clearance (Clint); for half-life: read-out: half-life (t1/2)
Text: MLM Stability Pooled MLM from male CD-1 mice (BIOIVT M00501) were used.

[2] = molecular target: T1, 5-HT2A receptor (Homo sapiens, UniProt P28223); assay: cell-based; format: cell-based; design: expressed in transfected cells; host or cells: HEK293, stably transfected; conditions: Ca2+ flux; for EC50: HEK293; for Emax: HEK293, agonist, read-out: 5-HT2A % Act @ Max Dose
Description: (§1) Functional Assays at 5-HT2A, 5-HT2B, and 5-HT1A. Agonist activity at 5-HT2A, 5-HT2B, 5HT2C and 5-HT1A receptors was determined using a FLIPR Ca^2+ flux assay at WuXi AppTec (Hong Kong) Limited according to their standard protocols. Briefly, stably transfected cells expressing the receptor of interest and Gα15 in the case of 5-HT1A (HEK293 for 5-HT2A and 5-HT2B; CHO cells for 5-HT1A) were grown and plated in a 384 well plate and incubated at 37° C. and 5% CO2 overnight. A solution of 250 mM probenecid in 1 mL FLIPR assay buffer was prepared fresh. This was combined with a fluorescent dye (Fluo-4 Direct™) to make a final assay concentration of 2.5 mM. […] The fluorescent dye was then added to the assay plate along with assay buffer to a final volume of 40 μL. The cell plate was incubated for 50 min at 37° C. and 5% CO2 and placed into the FLIPR Tetra along with the compound plate. 10 μL of references and compounds were then transferred from the compound plate into the cell plate and the fluorescent signal was read.

[3] = molecular target: T2, 5-HT1A receptor (Homo sapiens, UniProt P08908); assay: cell-based; conditions: agonist, Ca2+ flux; for Emax: CHO, read-out: 5-HT1A % Act @ Max Dose; for EC50: CHO cells with Gα15
T2 construct: expressed in transfected cells; host or cells: CHO cells, stably transfected
T2 sequence (P08908 1-422): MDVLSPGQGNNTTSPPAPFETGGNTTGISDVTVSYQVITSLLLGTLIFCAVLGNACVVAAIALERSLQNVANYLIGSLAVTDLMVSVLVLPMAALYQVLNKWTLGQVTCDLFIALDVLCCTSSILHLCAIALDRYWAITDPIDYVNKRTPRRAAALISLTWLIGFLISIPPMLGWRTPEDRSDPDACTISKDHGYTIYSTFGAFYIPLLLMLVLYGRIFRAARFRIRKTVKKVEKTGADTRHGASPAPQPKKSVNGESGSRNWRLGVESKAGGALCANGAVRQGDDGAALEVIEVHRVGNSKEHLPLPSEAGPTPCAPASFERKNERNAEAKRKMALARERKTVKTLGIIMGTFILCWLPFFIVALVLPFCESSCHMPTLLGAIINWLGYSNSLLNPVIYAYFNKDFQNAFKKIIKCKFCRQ
Description: as §1

[4] = molecular target: T1, 5-HT2A receptor; assay: biochemical; format: binding; design: expressed in transfected cells; host or cells: HEK293, stably transfected; conditions: [3H]ketanserin 1 nM; HEK293 stable cell line; 1 h, 25 °C
Description: Affinity of the test compounds for the 5-HT2A receptor was determined in radioligand binding experiments with [^3H]ketanserin by WuXi AppTec (Hong Kong) Limited, using methods adapted from the literature and under conditions described in Table 1.

[5] = in vitro; format: in vitro ADME, rat; conditions: rat, microsomes, RLM (male Sprague-Dawley) 0.50 mg/mL, NADPH 1 mM, 1 μM compound, pH 7.4, 37° C., 60 min; for microsomal CLint: read-out: Intrinsic clearance (Clint); for half-life: read-out: half-life (t1/2)
Text: RLM Stability Pooled RLM from male Sprague-Dawley rats (Xenotech R1000) were used.

[6] = in vitro; format: in vitro ADME, human; conditions: human, microsomes, HLM 0.50 mg/mL, NADPH 1 mM, 1 μM compound, pH 7.4, 37° C., 60 min; for microsomal CLint: read-out: Intrinsic clearance (Clint); for half-life: read-out: half-life (t1/2)
[7] = molecular target: T3, 5-HT2B receptor (Homo sapiens, UniProt P41595); assay: cell-based; format: cell-based; conditions: Ca2+ flux; for Emax: HEK293, agonist, HEK293, max dose, read-out: 5-HT2B % Act @ Max Dose; for EC50: agonist, HEK293
T3 construct: expressed in transfected cells; host or cells: HEK293, stably transfected
Description: as §1

T1 sequence (P28223 whole entry): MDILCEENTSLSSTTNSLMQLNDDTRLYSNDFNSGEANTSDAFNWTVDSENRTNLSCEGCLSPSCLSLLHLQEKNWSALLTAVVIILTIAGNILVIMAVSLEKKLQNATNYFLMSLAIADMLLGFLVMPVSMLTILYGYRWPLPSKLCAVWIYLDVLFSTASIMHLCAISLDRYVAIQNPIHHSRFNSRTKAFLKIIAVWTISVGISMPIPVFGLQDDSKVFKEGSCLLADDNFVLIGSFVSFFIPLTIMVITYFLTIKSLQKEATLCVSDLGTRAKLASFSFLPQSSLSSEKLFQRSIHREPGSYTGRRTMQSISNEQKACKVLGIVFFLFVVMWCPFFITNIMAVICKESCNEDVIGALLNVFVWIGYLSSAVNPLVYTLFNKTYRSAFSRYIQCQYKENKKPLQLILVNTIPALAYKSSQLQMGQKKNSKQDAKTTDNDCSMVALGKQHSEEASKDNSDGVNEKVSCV
T3 sequence (P41595 whole entry): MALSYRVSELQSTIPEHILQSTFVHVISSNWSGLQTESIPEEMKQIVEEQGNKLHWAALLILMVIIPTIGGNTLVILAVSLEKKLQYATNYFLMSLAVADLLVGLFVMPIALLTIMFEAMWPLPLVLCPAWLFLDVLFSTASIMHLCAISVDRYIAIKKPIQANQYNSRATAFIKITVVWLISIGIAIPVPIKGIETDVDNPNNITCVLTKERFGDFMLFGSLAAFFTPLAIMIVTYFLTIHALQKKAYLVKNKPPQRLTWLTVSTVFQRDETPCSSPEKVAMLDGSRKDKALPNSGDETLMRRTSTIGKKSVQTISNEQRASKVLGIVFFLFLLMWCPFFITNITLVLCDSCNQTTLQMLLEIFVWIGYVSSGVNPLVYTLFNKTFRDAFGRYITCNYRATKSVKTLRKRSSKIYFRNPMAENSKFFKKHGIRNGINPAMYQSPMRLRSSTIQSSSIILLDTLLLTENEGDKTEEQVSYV

For `CCN(CC)C(=O)[C@@H]1C=C2c3cccc4[nH]cc(c34)C[C@H]2N(Cc2ncco2)C1` [Compound 74, (6aR,9R)—N,N-diethyl-7-(oxazol-2-ylmethyl)-4,6,6a,7,8,9-hexahydroindolo[4,3-fg]quinoline-9-carboxamide], the microsomal CLint [1] was 83.3 µL/min/mg, the half-life [1] was 16.6 min and the EC50 ([2]; agonist) was 289 nM and 54.3 nM. For the same molecule, the “5-HT2A % Act @ Max Dose” value ([2]; agonist, HEK293, max dose) was 63% and 89.01%, the “5-HT1A % Act @ Max Dose” value ([3]; CHO cells with Gα15, max dose) was 51.28% and 82.73% and the Ki [4] was 52.5 nM. It also gave a microsomal CLint [5] of 71.7 µL/min/mg, a half-life [5] of 19.3 min and a microsomal CLint [6] of 45.5 µL/min/mg. For the same molecule, the half-life [6] was 30.5 min.
`CCN(CC)C(=O)[C@@H]1C=C2c3cccc4[nH]cc(c34)C[C@H]2N(Cc2cnco2)C1` [Compound 75, (6aR,9R)—N,N-diethyl-7-(oxazol-5-ylmethyl)-4,6,6a,7,8,9-hexahydroindolo[4,3-fg]quinoline-9-carboxamide] gave a microsomal CLint [1] of 83.1 µL/min/mg, a half-life [1] of 16.7 min and a Ki [4] of 12.8 nM. It also gave a microsomal CLint [5] of 56.3 µL/min/mg, a half-life [5] of 24.6 min and a microsomal CLint [6] of 35 µL/min/mg. For the same molecule, the half-life [6] was 39.6 min.
`O=C([C@@H]1C=C2c3cccc4[nH]cc(c34)C[C@H]2N(Cc2ccccc2)C1)N1CCCC1` [Compound 84, ((6aR,9R)-7-benzyl-4,6,6a,7,8,9-hexahydroindolo[4,3-fg]quinolin-9-yl)(pyrrolidin-1-yl)methanone] gave an Emax [7] of 5.16%, an EC50 [7] of over 10000 nM and a microsomal CLint [1] of 146 µL/min/mg. The half-life [1] was 9.5 min, the Emax ([2]; HEK293, max dose) was 68.9% and the EC50 ([2]; agonist) was 895 nM. The Emax ([3]; CHO cells with Gα15, max dose) was 40.3%, the EC50 [3] was 1690 nM and the Ki [4] was 17.8 nM. For the same molecule, the microsomal CLint [5] was 101 µL/min/mg, the half-life [5] was 13.7 min and the microsomal CLint [6] was 89.7 µL/min/mg. It also gave a half-life [6] of 15.5 min.
Molecule `O=C([C@H]1C=C2c3cccc4[nH]cc(c34)C[C@H]2N(Cc2ccccc2)C1)N1CCCC1` [Compound 84a, ((6aR,9S)-7-benzyl-4,6,6a,7,8,9-hexahydroindolo[4,3-fg]quinolin-9-yl)(pyrrolidin-1-yl)methanone] has a microsomal CLint [1] of 784 µL/min/mg, a half-life [1] of 1.8 min and a Ki [4] of over 1230 nM. For the same molecule, the microsomal CLint [5] was 257 µL/min/mg, the half-life [5] was 5.4 min and the microsomal CLint [6] was 154 µL/min/mg. The half-life [6] was 9 min.
In the case of `CCN(C)C(=O)[C@H]1C=C2c3cccc4[nH]cc(c34)C[C@H]2N(Cc2ccccc2)C1` [Compound 85a, (6aR,9S)-7-benzyl-N-ethyl-N-methyl-4,6,6a,7,8,9-hexahydroindolo[4,3-fg]quinoline-9-carboxamide], the microsomal CLint [1] is reported as 848 µL/min/mg, the half-life [1] is reported as 1.6 min and the Ki [4] is reported as 516 nM. It also gave a microsomal CLint [5] of 400 µL/min/mg, a half-life [5] of 3.5 min and a microsomal CLint [6] of 156 µL/min/mg. It also gave a half-life [6] of 8.9 min.
For `CCCN(CC)C(=O)[C@@H]1C=C2c3cccc4[nH]cc(c34)C[C@H]2N(Cc2ccccc2)C1` [Compound 86, (6aR,9R)-7-benzyl-N-ethyl-N-propyl-4,6,6a,7,8,9-hexahydroindolo[4,3-fg]quinoline-9-carboxamide], the Emax [7] was 7.82%, the EC50 [7] was 1280 nM and the microsomal CLint [1] was 380 µL/min/mg. For the same molecule, the half-life [1] was 3.6 min, the Emax ([2]; HEK293, max dose) was 67% and the EC50 ([2]; agonist) was 933 nM. The Emax ([3]; CHO cells with Gα15, max dose) was 49.1%, the EC50 [3] was 15500 nM and the Ki [4] was 1.6 nM. It also gave a microsomal CLint [5] of 117 µL/min/mg, a half-life [5] of 11.9 min and a microsomal CLint [6] of 128 µL/min/mg. For the same molecule, the half-life [6] was 10.9 min.
In the case of `CCCN(CC)C(=O)[C@H]1C=C2c3cccc4[nH]cc(c34)C[C@H]2N(Cc2ccccc2)C1` [Compound 86a, (6aR,9S)-7-benzyl-N-ethyl-N-propyl-4,6,6a,7,8,9-hexahydroindolo[4,3-fg]quinoline-9-carboxamide], the microsomal CLint [1] is reported as 1010 µL/min/mg, the half-life [1] is reported as 1.4 min and the Ki [4] is reported as 671 nM. It also gave a microsomal CLint [5] of 330 µL/min/mg, a half-life [5] of 4.2 min and a microsomal CLint [6] of 95.2 µL/min/mg. The half-life [6] was 14.6 min.
Molecule `C[C@H]1C[C@H](C)N1C(=O)[C@@H]1C=C2c3cccc4[nH]cc(c34)C[C@H]2N(Cc2ccccc2)C1` [Compound 87, ((6aR,9R)-7-benzyl-4,6,6a,7,8,9-hexahydroindolo[4,3-fg]quinolin-9-yl)((2S,4S)-2,4-dimethylazetidin-1-yl)methanone] has an Emax [7] of 10%, an EC50 [7] of over 3000 nM and a microsomal CLint [1] of 681 µL/min/mg. The half-life [1] was 2 min, the Emax ([2]; HEK293, max dose) was 61.2% and the EC50 ([2]; agonist) was 669 nM. For the same molecule, the Emax ([3]; CHO cells with Gα15, max dose) was 58.2%, the EC50 [3] was 54100 nM and the Ki [4] was 2.1 nM. For the same molecule, the microsomal CLint [5] was 60.1 µL/min/mg, the half-life [5] was 23 min and the microsomal CLint [6] was 97.2 µL/min/mg. It also gave a half-life [6] of 14.3 min.
For `CC[C@@H](C)NC(=O)[C@@H]1C=C2c3cccc4[nH]cc(c34)C[C@H]2N(Cc2ccccc2)C1` [Compound 88, (6aR,9R)-7-benzyl-N—((R)-sec-butyl)-4,6,6a,7,8,9-hexahydroindolo[4,3-fg]quinoline-9-carboxamide], the Emax [7] was 0.88%, the EC50 [7] was over 10000 nM and the microsomal CLint [1] was 774 µL/min/mg. It also gave a half-life [1] of 1.8 min, an Emax ([2]; HEK293, max dose) of 73.6% and an EC50 ([2]; agonist) of 347 nM. It also gave an Emax ([3]; CHO cells with Gα15, max dose) of 76.7%, an EC50 [3] of 8710 nM and a Ki [4] of 3.1 nM. The microsomal CLint [5] was 246 µL/min/mg, the half-life [5] was 5.6 min and the microsomal CLint [6] was 455 µL/min/mg. For the same molecule, the half-life [6] was 3 min.
Molecule `CC[C@@H](C)NC(=O)[C@H]1C=C2c3cccc4[nH]cc(c34)C[C@H]2N(Cc2ccccc2)C1` [Compound 88a, (6aR,9S)-7-benzyl-N—((R)-sec-butyl)-4,6,6a,7,8,9-hexahydroindolo[4,3-fg]quinoline-9-carboxamide] has a microsomal CLint [1] of 837 µL/min/mg, a half-life [1] of 1.7 min and a Ki [4] of 191 nM. The microsomal CLint [5] was 830 µL/min/mg, the half-life [5] was 1.7 min and the microsomal CLint [6] was 302 µL/min/mg. The half-life [6] was 4.6 min.
`CCN(CC)C(=O)[C@H]1C=C2c3cccc4[nH]cc(c34)C[C@H]2N(CC2CCCCC2)C1` [Compound 89a, (6aR,9S)-7-(cyclohexylmethyl)-N,N-diethyl-4,6,6a,7,8,9-hexahydroindolo[4,3-fg]quinoline-9-carboxamide] showed a microsomal CLint [1] of 743 µL/min/mg, a half-life [1] of 1.9 min and an Emax ([2]; HEK293, max dose) of 3.92%. It also gave an EC50 ([2]; agonist) of over 1000 nM, a Ki [4] of 208 nM and a microsomal CLint [5] of 304 µL/min/mg. It also gave a half-life [5] of 4.6 min, a microsomal CLint [6] of 91.5 µL/min/mg and a half-life [6] of 15.2 min.
For `CCN(CC)C(=O)[C@H]1C=C2c3cccc4[nH]cc(c34)C[C@H]2N(Cc2ccc(C)cc2)C1` [Compound 97a, (6aR,9S)—N,N-diethyl-7-(4-methylbenzyl)-4,6,6a,7,8,9-hexahydroindolo[4,3-fg]quinoline-9-carboxamide], the EC50 ([2]; agonist) was over 1260 nM and the Ki [4] was over 1230 nM.
In the case of `CCN(CC)C(=O)[C@@H]1C=C2c3cccc4[nH]cc(c34)C[C@H]2N(Cc2cccs2)C1` [Compound 104], the EC50 [7] is reported as 731 nM, the EC50 ([2]; agonist) is reported as 844 nM and the EC50 [3] is reported as 730 nM. The Ki [4] was 1.42 nM.
